# Laboratory results: patent US12234245B2, “Sulfonimidamide compounds as inhibitors of interleukin-1 activity” (Genentech, Inc., priority 2018, dated 2025)
# Tests used:
# NLRP3 inflammasome [1] = target: T1, NLRP3 inflammasome (Homo sapiens, UniProt Q96P20); assay: NLRP3 inflammasome activation assay in PBMCs, IL-1β release (ELISA / HTRF); type: cell-based; set-up: were freshly isolated from human peripheral blood from healthy donors; StemCells Technologies; host or cells: primary human PBMCs, LPS-primed, nigericin-stimulated; settings: LPS primed
# Method: Some of the following assays were used to determine the inhibitory activity of the compounds on the NLRP3 inflammasome using a common inflammasome activation stimuli—nigericin.
# Human peripheral blood mononuclear cells (PBMCs), consisting of lymphocytes (T, B and NK cells), monocytes and dendritic cells, were freshly isolated from human peripheral blood from healthy donors. Cells were obtained through an IRB approved donor program by iXCells Biotechnologies where all the donors were tested for bacterial and viral infections. Cells were purified from peripheral blood using ficoll gradient centrifugation.
# Fresh or cryopreserved PMBCs were seeded in V-bottom 96-well plate at 0.5-1×10^5 cells per well and incubated overnight at 37° C. with 5% CO2 in RPMI 1640 medium with GlutaMAX supplement, 4.5 g/L D-glucose, 10% Fetal Bovine Serum (FBS), […] Sodium Pyruvate, 1% Penicillin/Streptomycin, 10 mM HEPES and 0.05 mM of β-mercaptoethanol. Freshly isolated or cryopreserved KCs cells were seeded in flat-bottom 96-well plates at 0.6-1.5×10^5 cells/well and incubated overnight at 37° C. 5% CO2 in RPMI 1640 Medium with GlutaMAX supplement, FBS, 1% Penicillin/Streptomycin and 10 mM HEPES. The following day, the cells were primed with 100 ng/mL of lipopolysaccharides (LPS; Sigma Aldrich) in FBS-free RPMI 1640 for 3 h. After the priming step, the media was removed and PBMCs were pre-incubated with serial concentrations of test compounds (0.00017-10 uM) or vehicle (DMSO) for 30 min in FBS-free media prior to addition of the NLRP3 activator. Cells were then stimulated with 10 uM Nigericin (Sigma Aldrich; InvivoGen) for 1.5 h. Plates were centrifuged at 1,500 rpm for 3 minutes to pellet cells and supernatant was transferred into new plates for subsequent experiments.
# For ELISA assays cells were seeded into 96-well plates. Post study, supernatants were removed and the levels of mature IL-1β, IL18 and TNFα (Quantikine ELISA, R&D systems) were measured in cell conditioned media by ELISA according to manufacturer's instructions.
# Human frozen PBMCs were purchased from StemCells Technologies. Cells were rapidly thawed in 37° C. water bath and resuspended in fresh assay media consisting of RPMI 1640 Medium containing 1% sodium pyruvate, 10 mM HEPES, 2.5 g/L glucose and 55 μM 2-Mercaptoethanol. Cell density was adjusted to 8.1×10^5 cells/mL. Cells were primed by adding lipopolysaccharide (Invivogen Ultrapure lipopolysaccharide from E. coli, tlrl-3pelps) at a final concentration of 100 ng/mL in cell suspension. 37 μL of cell suspension with LPS was seeded per well of a 384 well plate and incubated for 3 hours at 37° C. and 5% CO2. After priming, PBMCs were preincubated with serially diluted test compounds with starting concentration of 40 μM followed by 2-fold dilution for a 20-point curve or vehicle (DMSO) for 30 min in assay media at 37° C. and 5% CO2. Cells were then stimulated with 10 μM nigericin (Invivogen, tlrl-nig-5) for 90 min at 37° C. and 5% CO2 to activate NLRP3 dependent inflammasome pathway and IL-1β release in cell culture supernatant. Cells were centrifuged at 1200 RPM for 1 min and 40 μL of supernatant was transferred into fresh plates and stored at −80° C. until IL-1β analysis.
# 16 μL of supernatant was added to white 384 well HTRF plates, followed by addition of 4 μL of HTRF cocktail in each well. Plates were quickly centrifuged, sealed and incubated overnight at room temperature. Next day, HTRF signal was read on a Pherastar and ratio of 665/620 was calculated based on manufacturer's protocol to obtain concentration of IL-1β in cell culture supernatant.
# NLRP3 inflammasome [2] = target: T1, NLRP3 inflammasome; assay: THP-1 ASC-GFP speck assay; type: cell-based; set-up: host or cells: THP-1 ASC-GFP cells, PMA-differentiated, LPS-primed, nigericin-stimulated; settings: THP-1 ASC-GFP cells, PMA differentiated, LPS primed, 10 μM nigericin; read-out: THP1 ASC Speck IC50
# Method: THP-1 ASC-GFP cell line was purchased from Invivogen, San Diego, for inflammasome activation assay. THP-1 ASC-GFP cells stably express a 37.6 kDa ASC::GFP fusion protein that enables monitoring of spec formation by microscopy after activation of NLRP3 dependent inflammasome pathway. Cells were maintained at a density of 600,000 cells/mL in growth media consisting of RPMI 1640, 2 mM L-glutamine, 25 mM HEPES and 10% heat inactivated fetal bovine serum at 37° C. and 5% CO2. Cells were passaged every 3-4 days and used for assays for up to 20 passages.
# THP-1 ASC-GFP cells were collected by centrifuging cells at 800 RPM for 5 minutes. Cell culture supernatant was removed and cells were re-suspended in fresh media at density of 1×10^6 cells/mL in assay media consisting of RPMI 1640, 2 mM L-glutamine, 25 mM HEPES and 10% heat inactivated fetal bovine serum. Phorbol 12-myristate 13-acetate (PMA) (Invivogen, tlrl-pma) was added to the cell suspension at a final concentration of 500 ng/ml and mixed thoroughly. 40,000 cells were added per well of a 384 well plate and differentiated into macrophages overnight at 37° C. and 5% CO2. Cells were primed with 1 μg/mL of lipopolysaccharide (Invivogen Ultrapure lipopolysaccharide from E. coli, tlrl-3pelps) in assay media for 3 hours at 37° C. and 5% CO2. After priming, media was removed and THP-1 ASC-GFP cells were preincubated with serially diluted test compounds with starting concentration of 40 μM followed by 2-fold dilution for a 20-point curve or vehicle (DMSO) for 30 min in assay media at 37° C. and 5% CO2. Cells were then stimulated with 10 μM nigericin (Invivogen, tlrl-nig-5) for 90 min at 37° C. and 5% CO2 to activate NLRP3 dependent inflammasome pathway and spec formation. After stimulation, cells were fixed with 4.8% paraformaldehyde (Electron Microscopy Sciences #15710-S) and incubated at room temperature for 15 min. Cells were then washed 3-times with 100 μL of phosphate buffered saline and permeabilized in the presence of premeablization/block buffer for 20 min at room temperature. Cells were then washed 3-times with 100 μL phosphate buffered saline and incubated for 1 hr at room temperature in the presence of hoechst. After staining with Hoechst, cells were washed 3-times with 100 μL phosphate buffered saline and imaged for ASC spec formation.
# THP-1 ASC-GFP cells were imaged in 488 and Hoechst channels. Hoechst channel was used for cell count and 488 channel was used to identify number of GFP ASC specks in imaged fields. Percentage of cells with a spec was calculated by dividing the number of GFP positive spots by total number of cells.
# [3] = 10 μM nigericin, read-out: PBMC IL-1β IC50
# [4] = 10 uM nigericin, read-out: PBMC IL-1 β IC50
# T1 sequence (Q96P20 whole entry): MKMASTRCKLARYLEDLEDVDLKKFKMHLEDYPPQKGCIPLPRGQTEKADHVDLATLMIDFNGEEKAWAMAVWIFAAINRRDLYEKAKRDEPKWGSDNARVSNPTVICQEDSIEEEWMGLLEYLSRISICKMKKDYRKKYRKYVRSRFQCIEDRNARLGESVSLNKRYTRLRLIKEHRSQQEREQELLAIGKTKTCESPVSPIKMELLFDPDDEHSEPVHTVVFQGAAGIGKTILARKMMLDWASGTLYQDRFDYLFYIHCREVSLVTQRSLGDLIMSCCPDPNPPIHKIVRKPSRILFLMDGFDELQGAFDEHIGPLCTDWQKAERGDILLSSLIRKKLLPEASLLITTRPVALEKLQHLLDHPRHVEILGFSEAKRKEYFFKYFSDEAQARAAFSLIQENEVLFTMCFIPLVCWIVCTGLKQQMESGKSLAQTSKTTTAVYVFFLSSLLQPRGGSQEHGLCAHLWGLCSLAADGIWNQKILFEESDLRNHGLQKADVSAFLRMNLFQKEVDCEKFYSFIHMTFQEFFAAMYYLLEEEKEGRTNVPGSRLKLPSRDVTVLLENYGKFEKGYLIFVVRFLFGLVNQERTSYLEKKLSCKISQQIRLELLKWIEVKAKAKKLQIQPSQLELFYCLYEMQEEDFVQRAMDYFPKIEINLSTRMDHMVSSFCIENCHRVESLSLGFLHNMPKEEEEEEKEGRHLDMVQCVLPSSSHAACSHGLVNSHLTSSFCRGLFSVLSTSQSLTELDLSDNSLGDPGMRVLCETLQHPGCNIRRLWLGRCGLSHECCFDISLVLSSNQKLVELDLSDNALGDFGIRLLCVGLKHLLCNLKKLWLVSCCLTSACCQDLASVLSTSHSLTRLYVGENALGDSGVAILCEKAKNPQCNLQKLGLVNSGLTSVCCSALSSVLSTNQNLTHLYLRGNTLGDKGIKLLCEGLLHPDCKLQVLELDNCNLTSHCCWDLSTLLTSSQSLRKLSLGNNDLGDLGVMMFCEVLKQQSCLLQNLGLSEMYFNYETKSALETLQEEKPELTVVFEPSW
Structure (SMILES),IC50 (NLRP3 inflammasome [1]; [3]) [nM],IC50 (NLRP3 inflammasome [2]) [nM],IC50 (NLRP3 inflammasome [1]; [4]) [nM]
"COC1CN(C2COc3c(S(N)(=O)=NC(=O)Nc4c5c(c(F)c6c4CCC6)CCC5)cnn3C2)C1 (single isomer, unassigned) [Example 42]",5,18,
"CN(C)[C@@H]1COc2c([S@](N)(=O)=NC(=O)Nc3c4c(c(F)c5c3CCC5)CCC4)cnn2C1 (single isomer, unassigned) [Example 44]",86,450,
"NS(=O)(=NC(=O)Nc1c2c(c(F)c3c1CCC3)CCC2)c1cnn2c1OCC(NCCF)C2 (single isomer, unassigned) [Example 46]",7,81,
"COc1cc(C(C)C)c(NC(=O)N=S(N)(=O)c2cnn3c2OC[C@@H](N2CC(OC)C2)C3)c(C(C)C)n1 (single isomer, unassigned) [Example 49]",490,400,
"CNC1COc2c(S(N)(=O)=NC(=O)Nc3c(C(C)C)cc(OC)nc3C(C)C)cnn2C1 (single isomer, unassigned) [Example 50]",200,430,
"COc1cc(C(C)C)c(NC(=O)N=S(N)(=O)c2cnn3c2OCC(OC)C3)c(C(C)C)n1 (single isomer, unassigned) [Example 53]",470,1200,
"COCCNC1COc2c(S(N)(=O)=NC(=O)Nc3c4c(cc5c3CCC5)CCC4)cnn2C1 (single isomer, unassigned) [Example 54]",330,360,
"COCCNC1COc2c(S(N)(=O)=NC(=O)Nc3c4c(cc5c3CCC5)CCC4)cnn2C1 (single isomer, unassigned) [Example 55]",> 10000,7200,
"CC1CCOc2c(S(N)(=O)=NC(=O)Nc3c4c(cc5c3CCC5)CCC4)cnn2C1 (single isomer, unassigned) [Example 64]",> 20000,> 20000,
"CC1CCOc2c(S(N)(=O)=NC(=O)Nc3c4c(cc5c3CCC5)CCC4)cnn2C1 (single isomer, unassigned) [Example 67]",220,1400,
"CC(=O)NS(=O)(=NC(=O)Nc1c2c(c(F)c3c1CCC3)CCC2)c1cnn2c1OCCC2 (single isomer, unassigned) [Example 95]",2230,,
"Cn1ccc(S(=O)(=NC(=O)Nc2c3c(cc4c2CCC4)CCC3)NCc2ccccc2)n1 (centres unmarked) [Example 11, N′-benzyl-N-((1,2,3,5,6,7-hexahydro-s-indacen-4-yl)carbamoyl)-1-methyl-1H-pyrazole-3-sulfonimidamide]",> 10000,,

# Other lines, results leading:
IC50 (NLRP3 inflammasome [1]; [3]) [nM],IC50 (NLRP3 inflammasome [2]) [nM],IC50 (NLRP3 inflammasome [1]; [4]) [nM],Structure (SMILES)
3640,,,"NS(=O)(=NC(=O)Nc1c2c(cc3c1CCC3)CCC2)c1cnn2c1CCCC2 (racemic) [Example 60, N′-((1,2,3,5,6,7-hexahydro-s-indacen-4-yl)carbamoyl)-4,5,6,7-tetrahydropyrazolo[1,5-a]pyridine-3-sulfonimidamide]"
430,1900,,"COC1CN(C2COc3c(S(N)(=O)=NC(=O)Nc4c5c(c(F)c6c4CCC6)CCC5)cnn3C2)C1 (single isomer, unassigned) [Example 43]"
0.7,11,,"CN(C)[C@@H]1COc2c([S@@](N)(=O)=NC(=O)Nc3c4c(c(F)c5c3CCC5)CCC4)cnn2C1 (single isomer, unassigned) [Example 45]"
330,1700,,"NS(=O)(=NC(=O)Nc1c2c(c(F)c3c1CCC3)CCC2)c1cnn2c1OC[C@@H](NCCF)C2 (single isomer, unassigned) [Example 47]"
> 10000,,,"COc1cc(C(C)C)c(NC(=O)N=S(N)(=O)c2cnn3c2OCC(N2CC(OC)C2)C3)c(C(C)C)n1 (single isomer, unassigned) [Example 48]"
> 10000,17000,,"CNC1COc2c(S(N)(=O)=NC(=O)Nc3c(C(C)C)cc(OC)nc3C(C)C)cnn2C1 (single isomer, unassigned) [Example 51]"
15100,> 20000,,"COc1cc(C(C)C)c(NC(=O)N=S(N)(=O)c2cnn3c2OCC(OC)C3)c(C(C)C)n1 (single isomer, unassigned) [Example 52]"
> 10000,> 20000,,"CNCCOC1COc2c(S(N)(=O)=NC(=O)Nc3c4c(cc5c3CCC5)CCC4)cnn2C1 (single isomer, unassigned) [Example 56]"
1670,,,"CNCCO[C@@H]1COc2c(S(N)(=O)=NC(=O)Nc3c4c(cc5c3CCC5)CCC4)cnn2C1 (single isomer, unassigned) [Example 57]"
> 10000,5500,,"NC1COc2c(S(N)(=O)=NC(=O)Nc3c4c(cc5c3CCC5)CCC4)cnn2C1 (single isomer, unassigned) [Example 58]"
> 20000,> 20000,,"CC1CCOc2c(S(N)(=O)=NC(=O)Nc3c4c(cc5c3CCC5)CCC4)cnn2C1 (single isomer, unassigned) [Example 66]"
380,330,,"N#CNS(=O)(=NC(=O)Nc1c2c(cc3c1CCC3)CCC2)c1cnn2c1OCCC2 (single isomer, unassigned) [Example 68]"
95,260,,"N[C@@H]1COc2c([S@@](N)(=O)=NC(=O)Nc3c4c(cc5c3CCC5)CCC4)cnn2C1 [Example 59, (S,6S)-6-amino-N′-((1,2,3,5,6,7-hexahydro-s-indacen-4-yl)carbamoyl)-6,7-dihydro-5H-pyrazolo[5,1-b][1,3]oxazine-3-sulfonimidamide]"
,,> 10000,Cn1ccc(S(=O)(=NC(=O)Nc2c3c(cc4c2CCC4)CCC3)NCc2ccccc2)n1 (centres unmarked) [drawing 659]
,,100 to 1000,CN[C@@H]1COc2c(S(=N)(=O)NC(=O)Nc3c4c(cc5c3CCC5)CCC4)cnn2C1 (some centres unmarked) [drawing 673]
